Columns and labels:
[1] = system: U-87 MG human glioblastoma; assay: U87 MG CCK-8 proliferation assay; assay type: cell-based; details: Homo sapiens, U-87 MG, 72 h, U-87 MG cells, read-out: U87MG CCK-8
Procedure, shortened: (§1)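 Cells cultured per ATCC recommendations and treated with 3-fold serial dilutions of compound from 20 μM to 1.02 nM. Viability by CCK-8 absorbance; % inhibition computed relative to DMSO-treated cells, with cell-free medium plus DMSO as blank.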

[2] = system: MV-4-11 human acute myeloid leukemia; assay: MV-4-11 CCK-8 proliferation assay; assay type: cell-based; details: Homo sapiens, MV4-11; MV-4-11 cells, 72 hr
Procedure, shortened: as §1

HSP90α protein = biological target: T1, HSP90α protein (Homo sapiens, UniProt P07900); assay: HSP90α-binding FP (BODIPY) assay; details: FP competition with BODIPY-labeled RNK04010
T1 construct: purchased BPS Bioscience #50298
Procedure, shortened: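 Fluorescence polarization measured competition with N-terminal human HSP90α, using either FITC-geldanamycin or BODIPY-labelled triazolone RNK04010 as tracer (5 nM final each). Compounds were tested in 2.5-fold dilutions from 20 μM to 5.2 nM, with incubation at 25 °C for 120 min (FITC) or 300 min (BODIPY).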

EC50 [1] | EC50 [2] | IC50 (HSP90α protein) | Compound
100 to 1000 nM | < 100 nM | < 100 nM | CCOc1cc(N2CCC(C(=O)N3CCN(Cc4ccc(-n5c(O)nnc5-c5cc(CC)c(O)cc5O)cc4)CC3)CC2)ccc1Nc1ncc2c(n1)N(S(C)(=O)=O)c1ccccc1C(=O)N2C [Compound 086, 2-((2-ethoxy-4-(4-(4-(4-(3-(5-ethyl-2,4-dihydroxyphenyl)-5-hydroxy-4H-1,2,4-triazol-4-yl)benzyl)piperazine-1-carbonyl)piperidin-1-yl)phenyl)amino)-5-methyl-11-(methylsulfonyl)-5,11-dihydro-6H-benzo[e]pyrimido[5,4-b][1,4]diazepin-6-one]
100 to 1000 nM | < 100 nM | 100 to 1000 nM | CCCc1cc(-c2nnc(O)n2-c2ccc(CN3CCN(C(=O)C4CCN(c5ccc(Nc6ncc7c(n6)N(S(C)(=O)=O)c6ccccc6C(=O)N7C)c(OCC)c5)CC4)CC3)cc2)c(O)cc1O [Compound 087, 2-((4-(4-(4-(4-(3-(2,4-dihydroxy-5-propylphenyl)-5-hydroxy-4H-1,2,4-triazol-4-yl)benzyl)piperazine-1-carbonyl)piperidin-1-yl)-2-ethoxyphenyl)amino)-5-methyl-11-(methylsulfonyl)-5,11-dihydro-6H-benzo[e]pyrimido[5,4-b][1,4]diazepin-6-one]
> 1000 nM | 100 to 1000 nM | 100 to 1000 nM | CCOc1cc(N2CCC(C(=O)NCc3ccc(-n4c(O)nnc4-c4cc(CC)c(O)cc4O)cc3F)CC2)ccc1Nc1ncc2c(n1)N(S(C)(=O)=O)c1ccccc1C(=O)N2C [Compound 088, 1-(3-ethoxy-4-((5-methyl-11-(methylsulfonyl)-6-oxo-6,11-dihydro-5H-benzo[e]pyrimido[5,4-b][1,4]diazepin-2-yl)amino)phenyl)-N-(4-(3-(5-ethyl-2,4-dihydroxyphenyl)-5-hydroxy-4H-1,2,4-triazol-4-yl)-2-fluorobenzyl)piperidine-4-carboxamide]
> 1000 nM | 100 to 1000 nM | 100 to 1000 nM | CCOc1cc(N2CCC(C(=O)NCc3ccc(-n4c(O)nnc4-c4cc(CC)c(O)cc4O)cc3C(F)(F)F)CC2)ccc1Nc1ncc2c(n1)N(S(C)(=O)=O)c1ccccc1C(=O)N2C [Compound 089, 1-(3-ethoxy-4-((5-methyl-11-(methylsulfonyl)-6-oxo-6,11-dihydro-5H-benzo[e]pyrimido[5,4-b][1,4]diazepin-2-yl)amino)phenyl)-N-(4-(3-(5-ethyl-2,4-dihydroxyphenyl)-5-hydroxy-4H-1,2,4-triazol-4-yl)-2-(trifluoromethyl)benzyl)piperidine-4-carboxamide]
> 1000 nM | 100 to 1000 nM | < 100 nM | CCCc1cc(-c2nnc(C(=O)NCCN3CCCCC3)n2-c2ccc(CN3CCN(CC4CCN(C(=O)C5CCN(c6ccc(Nc7ncc8c(n7)N(S(C)(=O)=O)c7ccccc7C(=O)N8C)c(OCC)c6)CC5)CC4)CC3)cc2)c(O)cc1O [Compound 093, 5-(2,4-dihydroxy-5-propylphenyl)-4-(4-((4-((1-(1-(3-ethoxy-4-((5-methyl-11-(methylsulfonyl)-6-oxo-6,11-dihydro-5H-benzo[e]pyrimido[5,4-b][1,4]diazepin-2-yl)amino)phenyl)piperidine-4-carbonyl)piperidin-4-yl)methyl)piperazin-1-yl)methyl)phenyl)-N-(2-(piperidin-1-yl)ethyl)-4H-1,2,4-triazole-3-carboxamide]
> 1000 nM | 100 to 1000 nM | 100 to 1000 nM | CCOc1cc(N2CCC(C(=O)N3CCN(CCOc4ccc(Nc5cc(-n6nc(C(F)(F)F)c7c6CC(C)(C)CC7=O)ccc5C(N)=O)cc4)CC3)CC2)ccc1Nc1ncc2c(n1)N(S(C)(=O)=O)c1ccccc1C(=O)N2C [Compound 094, 4-(6,6-dimethyl-4-oxo-3-(trifluoromethyl)-4,5,6,7-tetrahydro-1H-indazol-1-yl)-2-((4-(2-(4-(1-(3-ethoxy-4-((5-methyl-11-(methylsulfonyl)-6-oxo-6,11-dihydro-5H-benzo[e]pyrimido[5,4-b][1,4]diazepin-2-yl)amino)phenyl)piperidine-4-carbonyl)piperazin-1-yl)ethoxy)phenyl)amino)benzamide]
> 1000 nM | 100 to 1000 nM | > 1000 nM | CCOc1cc(N2CCC(C(=O)NCCCNC(=O)O[C@H]3CC[C@H](Nc4cc(-n5nc(C(F)(F)F)c6c5CC(C)(C)CC6=O)ccc4C(N)=O)CC3)CC2)ccc1Nc1ncc2c(n1)N(S(C)(=O)=O)c1ccccc1C(=O)N2C [Compound 095, (1R,4R)-4-((2-carbamoyl-5-(6,6-dimethyl-4-oxo-3-(trifluoromethyl)-4,5,6,7-tetrahydro-1H-indazol-1-yl)phenyl)amino)cyclohexyl (3-(1-(3-ethoxy-4-((5-methyl-11-(methylsulfonyl)-6-oxo-6,11-dihydro-5H-benzo[e]pyrimido[5,4-b][1,4]diazepin-2-yl)amino)phenyl)piperidine-4-carboxamido)propyl)carbamate]
> 1000 nM | < 100 nM | 100 to 1000 nM | CCOc1cc(N2CCC(C(=O)N3CCC(Cc4ccc(CN(C)Cc5ccc(-n6c(C(=O)NCC(F)(F)F)nnc6-c6cc(CC)c(O)cc6O)cc5)cc4)CC3)CC2)ccc1Nc1ncc2c(n1)N(S(C)(=O)=O)c1ccccc1C(=O)N2C [Compound 097, 4-(4-(((4-((1-(1-(3-ethoxy-4-((5-methyl-11-(methylsulfonyl)-6-oxo-6,11-dihydro-5H-benzo[e]pyrimido[5,4-b][1,4]diazepin-2-yl)amino)phenyl)piperidine-4-carbonyl)piperidin-4-yl)methyl)benzyl)(methyl)amino)methyl)phenyl)-5-(5-ethyl-2,4-dihydroxyphenyl)-N-(2,2,2-trifluoroethyl)-4H-1,2,4-triazole-3-carboxamide]
> 1000 nM | 100 to 1000 nM | > 1000 nM | CCOc1cc(N2CCC(C(=O)N3CCC(Cc4ccc(CN(C)Cc5ccc(-n6c(C(=O)NCC(F)(F)F)nnc6-c6cc(C)c(O)cc6O)cc5)cc4)CC3)CC2)ccc1Nc1ncc2c(n1)N(S(C)(=O)=O)c1ccccc1C(=O)N2C [Compound 100, 5-(2,4-dihydroxy-5-methylphenyl)-4-(4-(((4-((1-(1-(3-ethoxy-4-((5-methyl-11-(methylsulfonyl)-6-oxo-6,11-dihydro-5H-benzo[e]pyrimido[5,4-b][1,4]diazepin-2-yl)amino)phenyl)piperidine-4-carbonyl)piperidin-4-yl)methyl)benzyl)(methyl)amino)methyl)phenyl)-N-(2,2,2-trifluoroethyl)-4H-1,2,4-triazole-3-carboxamide]
> 1000 nM | 100 to 1000 nM | > 1000 nM | CCOc1cc(N2CCC(C(=O)N3CCN(C(=O)O[C@H]4CC[C@H](Nc5cc(-n6nc(C(F)(F)F)c7c6CC(C)(C)CC7=O)ccc5C(N)=O)CC4)CC3)CC2)ccc1Nc1ncc2c(n1)N(S(C)(=O)=O)c1ccccc1C(=O)N2C [Compound 106, (1R,4R)-4-((2-carbamoyl-5-(6,6-dimethyl-4-oxo-3-(trifluoromethyl)-4,5,6,7-tetrahydro-1H-indazol-1-yl)phenyl)amino)cyclohexyl 4-(1-(3-ethoxy-4-((5-methyl-11-(methylsulfonyl)-6-oxo-6,11-dihydro-5H-benzo[e]pyrimido[5,4-b][1,4]diazepin-2-yl)amino)phenyl)piperidine-4-carbonyl)piperazine-1-carboxylate]
100 to 1000 nM | < 100 nM | 100 to 1000 nM | CCOc1cc(N2CCC(C(=O)N3CCC(CN4CCN(Cc5ccc(-n6c(C(=O)NC(C)C(F)(F)F)nnc6-c6cc(CC)c(O)cc6O)cc5)CC4)CC3)CC2)ccc1Nc1ncc2c(n1)N(C)c1ccccc1C(=O)N2C (stereo not drawn) [Compound 114, 4-(4-((4-((1-(1-(4-((5,11-dimethyl-6-oxo-6,11-dihydro-5H-benzo[e]pyrimido[5,4-b][1,4]diazepin-2-yl)amino)-3-ethoxyphenyl)piperidine-4-carbonyl)piperidin-4-yl)methyl)piperazin-1-yl)methyl)phenyl)-5-(5-ethyl-2,4-dihydroxyphenyl)-N-(1,1,1-trifluoropropan-2-yl)-4H-1,2,4-triazole-3-carboxamide]
> 1000 nM | 100 to 1000 nM | > 1000 nM | CCOc1cc(N2CCC(C(=O)NCCOCCOCCNC(=O)O[C@H]3CC[C@H](Nc4cc(-n5nc(C(F)(F)F)c6c5CC(C)(C)CC6=O)ccc4C(N)=O)CC3)CC2)ccc1Nc1ncc2c(n1)N(S(C)(=O)=O)c1ccccc1C(=O)N2C [Compound 116, (1R,4R)-4-((2-carbamoyl-5-(6,6-dimethyl-4-oxo-3-(trifluoromethyl)-4,5,6,7-tetrahydro-1H-indazol-1-yl)phenyl)amino)cyclohexyl (2-(2-(2-(1-(3-ethoxy-4-((5-methyl-11-(methylsulfonyl)-6-oxo-6,11-dihydro-5H-benzo[e]pyrimido[5,4-b][1,4]diazepin-2-yl)amino)phenyl)piperidine-4-carboxamido)ethoxy)ethoxy)ethyl)carbamate]
> 1000 nM | 100 to 1000 nM | > 1000 nM | CCOc1cc(N2CCC(C(=O)N3CCC(CN4CCN(C(=O)O[C@H]5CC[C@H](Nc6cc(-n7nc(C(F)(F)F)c8c7CC(C)(C)CC8=O)ccc6C(N)=O)CC5)CC4)CC3)CC2)ccc1Nc1ncc2c(n1)N(S(C)(=O)=O)c1ccccc1C(=O)N2C [Compound 117, (1R,4R)-4-((2-carbamoyl-5-(6,6-dimethyl-4-oxo-3-(trifluoromethyl)-4,5,6,7-tetrahydro-1H-indazol-1-yl)phenyl)amino)cyclohexyl 4-((1-(1-(3-ethoxy-4-((5-methyl-11-(methylsulfonyl)-6-oxo-6,11-dihydro-5H-benzo[e]pyrimido[5,4-b][1,4]diazepin-2-yl)amino)phenyl)piperidine-4-carbonyl)piperidin-4-yl)methyl)piperazine-1-carboxylate]

Reference: patent US20240124460A1, “METHODS AND COMPOSITIONS FOR TARGETED PROTEIN DEGRADATION” (Ranok Therapeutics (Hangzhou) Co. Ltd., priority 2020, published 2024)
